We go through eleven molecules from BindingDB's records for doi:10.1111/cbdd.12822 (Wuhan University of Technology, 2016).

A value given as a limit tells only on which side of the number the result lay.

Experiment [1] addresses T1, Amine oxidase [flavin-containing] A (Rattus norvegicus, UniProt P21396).
T1 sequence (P21396 whole entry): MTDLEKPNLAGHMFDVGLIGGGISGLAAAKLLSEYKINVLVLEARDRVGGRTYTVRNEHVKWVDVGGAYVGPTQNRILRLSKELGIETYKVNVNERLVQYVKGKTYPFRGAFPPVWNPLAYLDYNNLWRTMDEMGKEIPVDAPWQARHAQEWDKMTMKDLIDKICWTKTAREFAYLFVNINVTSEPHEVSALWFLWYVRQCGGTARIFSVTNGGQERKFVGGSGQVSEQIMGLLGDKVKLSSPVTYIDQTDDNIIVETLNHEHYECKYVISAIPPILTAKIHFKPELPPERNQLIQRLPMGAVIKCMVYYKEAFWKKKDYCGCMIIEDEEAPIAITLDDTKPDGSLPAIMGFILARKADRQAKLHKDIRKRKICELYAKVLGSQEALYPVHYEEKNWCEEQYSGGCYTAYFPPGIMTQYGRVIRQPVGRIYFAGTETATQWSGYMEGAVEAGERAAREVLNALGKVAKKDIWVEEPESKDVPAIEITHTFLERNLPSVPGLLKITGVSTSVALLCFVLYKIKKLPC
The experiment in a line: Monoamine Oxidase Assay. The conditions noted are these: pH 7.4; 38 °C.

Experiment [2] concerns the target T2, Amine oxidase [flavin-containing] B (Rattus norvegicus, UniProt P19643).
T2 sequence (P19643 whole entry): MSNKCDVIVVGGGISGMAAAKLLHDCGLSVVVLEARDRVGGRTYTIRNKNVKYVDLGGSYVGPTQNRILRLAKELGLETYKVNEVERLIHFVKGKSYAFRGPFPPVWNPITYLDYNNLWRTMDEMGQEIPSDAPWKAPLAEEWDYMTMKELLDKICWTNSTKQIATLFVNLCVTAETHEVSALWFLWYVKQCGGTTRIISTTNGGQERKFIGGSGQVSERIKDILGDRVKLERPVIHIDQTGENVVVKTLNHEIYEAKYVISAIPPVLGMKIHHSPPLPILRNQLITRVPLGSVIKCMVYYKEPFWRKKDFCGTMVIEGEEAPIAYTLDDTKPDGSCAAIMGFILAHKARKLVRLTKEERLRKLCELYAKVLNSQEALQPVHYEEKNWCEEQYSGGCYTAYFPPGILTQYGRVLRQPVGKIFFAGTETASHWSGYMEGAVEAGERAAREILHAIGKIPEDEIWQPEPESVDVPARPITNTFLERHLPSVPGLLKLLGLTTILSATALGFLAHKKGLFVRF
The experiment in a line: Monoamine Oxidase Assay. The conditions noted are these: pH 7.4; 38 °C.

Experiment [3] has as its target Acetylcholinesterase (Electrophorus electricus, UniProt O42275). The experiment in a line: AChE and BuChE Inhibition Assay. Particulars: pH 8; 25 °C. As to the method:
(§1) This spectrophotometric assay is based on the reaction of 5,5-dithio-bis(2-nitrobenzoic)acid (DTNB) with thiocholine to yield a colored product. Shimadzu (Kyoto, Japan) UV-1700 UV-vis spectrophotometer was used to record the measurements. The enzyme solutions were prepared at 2.5 units/mL concentrationin 1% gelatin solution. BChE/AChE and compound solutions (50 μL each) in 2% DMSO at 10^-1-10^-6 mM concentration were added to 3 mL phosphate buffer (pH 8 &plusnm; 0.1)followed by incubation for 5 min at 25 °C. The reaction was commenced by the addition of acetylthiocholine iodide (ATC) (10 μL) and DTNB (50 μL) to the enzyme-inhibitor mixture. […] The blank reading contained 10 μL substrate, 50 μL DTNB, 50 μL (2%) DMSO, and 3 mL buffer. The reaction was performed in triplicate.

Experiment [4] deals with Carboxylic ester hydrolase (Equus caballus, UniProt Q9N1N9). The experiment in a line: AChE and BuChE Inhibition Assay. Particulars: pH 8; 25 °C. As to the method: as §1
Carboxylic ester hydrolase, sequence (Q9N1N9 whole entry): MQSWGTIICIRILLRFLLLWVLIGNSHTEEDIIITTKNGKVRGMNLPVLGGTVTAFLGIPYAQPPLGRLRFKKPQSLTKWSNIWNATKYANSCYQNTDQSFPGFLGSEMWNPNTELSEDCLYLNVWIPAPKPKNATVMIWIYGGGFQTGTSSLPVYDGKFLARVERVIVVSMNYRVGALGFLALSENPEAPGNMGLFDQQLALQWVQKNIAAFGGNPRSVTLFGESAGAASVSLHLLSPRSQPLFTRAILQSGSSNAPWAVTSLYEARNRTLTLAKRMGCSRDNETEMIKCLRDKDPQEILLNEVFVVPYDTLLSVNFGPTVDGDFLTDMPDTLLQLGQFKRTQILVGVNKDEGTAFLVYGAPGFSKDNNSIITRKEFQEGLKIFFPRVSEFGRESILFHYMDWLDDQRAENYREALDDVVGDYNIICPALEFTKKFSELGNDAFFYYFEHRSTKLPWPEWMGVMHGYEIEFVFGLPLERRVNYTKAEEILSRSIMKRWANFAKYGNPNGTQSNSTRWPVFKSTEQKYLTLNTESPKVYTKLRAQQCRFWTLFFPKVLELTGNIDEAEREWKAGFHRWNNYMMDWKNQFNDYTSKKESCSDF

Acetylcholinesterase, sequence (O42275 whole entry): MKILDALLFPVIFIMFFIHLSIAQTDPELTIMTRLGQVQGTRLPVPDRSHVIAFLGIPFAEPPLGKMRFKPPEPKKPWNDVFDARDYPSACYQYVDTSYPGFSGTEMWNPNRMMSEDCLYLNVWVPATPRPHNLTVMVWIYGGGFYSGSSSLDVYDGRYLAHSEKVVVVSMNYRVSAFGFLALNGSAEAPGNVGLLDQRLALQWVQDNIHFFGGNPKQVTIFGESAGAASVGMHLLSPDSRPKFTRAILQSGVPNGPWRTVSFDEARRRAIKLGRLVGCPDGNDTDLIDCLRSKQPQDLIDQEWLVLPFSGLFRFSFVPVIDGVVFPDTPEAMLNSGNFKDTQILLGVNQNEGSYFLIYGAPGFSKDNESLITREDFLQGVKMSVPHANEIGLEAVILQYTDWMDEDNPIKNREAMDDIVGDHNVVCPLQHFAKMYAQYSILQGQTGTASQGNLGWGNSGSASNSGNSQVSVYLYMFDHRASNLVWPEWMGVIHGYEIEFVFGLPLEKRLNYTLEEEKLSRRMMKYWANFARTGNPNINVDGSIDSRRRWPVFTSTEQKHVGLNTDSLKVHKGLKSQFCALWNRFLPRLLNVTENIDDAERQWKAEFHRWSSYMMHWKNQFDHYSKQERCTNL

What is called IC50 is the concentration that inhibits the measured activity by half. A lower IC50 goes with greater potency. On to `COc1cccc(/C=C2\CCc3c(O)cccc3C2=O)c1Cl` [(2E)-2-[(2-chloro-3-methoxyphenyl)methylidene]-5-hydroxy-1,2,3,4-tetrahydronaphthalen-1-one (3g)], for which the IC50 in experiment [1] was > 100 µM; in experiment [2] it was 56.4 µM; in experiment [3] it was > 100 µM; in experiment [4], > 100 µM.
Take `COc1cccc(/C=C2\CCc3c(OC)cccc3C2=O)c1Cl` [(2E)-2-[(2-chloro-3-methoxyphenyl)methylidene]-5-methoxy-1,2,3,4-tetrahydronaphthalen-1-one (3p)]: the IC50 in experiment [1] was > 100 µM; in experiment [2], 78.9 µM; in experiment [3], 89.5 µM; in experiment [4] it was > 100 µM.
Turning to `COc1cc2c(cc1OC)C(=O)/C(=C/c1cccc(OC)c1Cl)CC2` [(2E)-2-[(2-chloro-3-methoxyphenyl)methylidene]-6,7-dimethoxy-1,2,3,4-tetrahydronaphthalen-1-one (3s)], the IC50 is > 100 µM in experiment [1], 7.2 µM in experiment [2], 29.5 µM in experiment [3] and > 100 µM in experiment [4].
As to `COc1ccc2c(c1)CC/C(=C\c1cccc(OC)c1Cl)C2=O` [(2E)-2-[(2-chloro-3-methoxyphenyl)methylidene]-6-methoxy-1,2,3,4-tetrahydronaphthalen-1-one (3m)], the IC50 was > 100 µM in experiment [1], > 100 µM in experiment [2], 43.9 µM in experiment [3] and > 100 µM in experiment [4].
With `COc1cccc(/C=C2\CCc3ccc(F)cc3C2=O)c1Cl` [(2E)-2-[(2-chloro-3-methoxyphenyl)methylidene]-7-fluoro-1,2,3,4-tetrahydronaphthalen-1-one (3ab)], the IC50 in experiment [1] is 19.6 µM; in experiment [2] it was 6.9 µM; in experiment [3] it was > 100 µM; in experiment [4], > 100 µM.
Regarding `COc1cccc(/C=C2\CCc3ccc([N+](=O)[O-])cc3C2=O)c1Cl` [(2E)-2-[(2-chloro-3-methoxyphenyl)methylidene]-7-nitro-1,2,3,4-tetrahydronaphthalen-1-one (3ae)], the 50% inhibitory concentration (IC50) in experiment [1] was 7.23 µM; in experiment [2], 6.8 µM; in experiment [3], 9.14 µM; in experiment [4], 27.9 µM.
For `COc1cc(/C=C2\CCc3ccc(Br)cc3C2=O)c(Br)c(OC)c1OC` [(2E)-7-bromo-2-[(2-bromo-3,4,5-trimethoxyphenyl)methylidene]-1,2,3,4-tetrahydronaphthalen-1-one (3aa)] the same measures were > 100 µM, 44.6 µM, > 100 µM and > 100 µM.
The corresponding values for `COc1ccc(/C=C2\CCc3ccc(Br)cc3C2=O)c(Cl)c1OC` [(2E)-7-bromo-2-[(2-chloro-3,4-dimethoxyphenyl)methylidene]-1,2,3,4-tetrahydronaphthalen-1-one (3z)] are > 100 µM, 56.4 µM, > 100 µM and > 100 µM.
For `COc1cccc(/C=C2\CCc3ccc(Br)cc3C2=O)c1Cl` [(2E)-7-bromo-2-[(2-chloro-3-methoxyphenyl)methylidene]-1,2,3,4-tetrahydronaphthalen-1-one (3y)] the same measures were > 100 µM, 67.9 µM, > 100 µM and > 100 µM.
On to `COc1ccc(/C=C2\CCc3ccc(Cl)cc3C2=O)c(Cl)c1OC` [(2E)-7-chloro-2-[(2-chloro-3,4-dimethoxyphenyl)methylidene]-1,2,3,4-tetrahydronaphthalen-1-one (3k)], for which the IC50 was > 100 µM in experiment [1], > 100 µM in experiment [2], > 100 µM in experiment [3] and 56.7 µM in experiment [4].
Consider `COc1cccc(/C=C2\CCc3ccc(Cl)cc3C2=O)c1Cl` [(2E)-7-chloro-2-[(2-chloro-3-methoxyphenyl)methylidene]-1,2,3,4-tetrahydronaphthalen-1-one (3j)], for which the IC50 in experiment [1], in experiment [2], in experiment [3] and in experiment [4] was > 100 µM in each case.
